Read-outs that look alike come from different tables or passages of the source.

What is called IC50 is the concentration that gives 50% inhibition.

For one test, the target named is ALPK1 (Homo sapiens (Human), UniProt Q96QP1). Put plainly: ALPK1 in vitro kinase assay (HTRF of TIFA phosphorylation). In kind it is biochemical. (In TR-FRET formats the signal depends on donor and acceptor labels being close together.)
In test [1] the test system is ALPK1-dependent NFκB reporter gene activation in HEK293 cells stably expressing an NF-kB reporter (G9 cells). Description: NFκB gene reporter alkaline phosphatase assay. To be noted: Homo sapiens, HEK293; read-out: NFkB assay IC50. In kind it is cell-based. Put shortly: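 HEK293 G9 cells carrying an NF-κB-driven alkaline phosphatase reporter, pretreated 30 min with serially diluted compound, then stimulated with D-glycero-D-manno-6-fluoro-heptose-1β-S-ADP. Reporter activity read with chromogenic pNPP substrate; IC50 from four-parameter logistic fit.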

Chain of ALPK1 (Q96QP1 whole entry): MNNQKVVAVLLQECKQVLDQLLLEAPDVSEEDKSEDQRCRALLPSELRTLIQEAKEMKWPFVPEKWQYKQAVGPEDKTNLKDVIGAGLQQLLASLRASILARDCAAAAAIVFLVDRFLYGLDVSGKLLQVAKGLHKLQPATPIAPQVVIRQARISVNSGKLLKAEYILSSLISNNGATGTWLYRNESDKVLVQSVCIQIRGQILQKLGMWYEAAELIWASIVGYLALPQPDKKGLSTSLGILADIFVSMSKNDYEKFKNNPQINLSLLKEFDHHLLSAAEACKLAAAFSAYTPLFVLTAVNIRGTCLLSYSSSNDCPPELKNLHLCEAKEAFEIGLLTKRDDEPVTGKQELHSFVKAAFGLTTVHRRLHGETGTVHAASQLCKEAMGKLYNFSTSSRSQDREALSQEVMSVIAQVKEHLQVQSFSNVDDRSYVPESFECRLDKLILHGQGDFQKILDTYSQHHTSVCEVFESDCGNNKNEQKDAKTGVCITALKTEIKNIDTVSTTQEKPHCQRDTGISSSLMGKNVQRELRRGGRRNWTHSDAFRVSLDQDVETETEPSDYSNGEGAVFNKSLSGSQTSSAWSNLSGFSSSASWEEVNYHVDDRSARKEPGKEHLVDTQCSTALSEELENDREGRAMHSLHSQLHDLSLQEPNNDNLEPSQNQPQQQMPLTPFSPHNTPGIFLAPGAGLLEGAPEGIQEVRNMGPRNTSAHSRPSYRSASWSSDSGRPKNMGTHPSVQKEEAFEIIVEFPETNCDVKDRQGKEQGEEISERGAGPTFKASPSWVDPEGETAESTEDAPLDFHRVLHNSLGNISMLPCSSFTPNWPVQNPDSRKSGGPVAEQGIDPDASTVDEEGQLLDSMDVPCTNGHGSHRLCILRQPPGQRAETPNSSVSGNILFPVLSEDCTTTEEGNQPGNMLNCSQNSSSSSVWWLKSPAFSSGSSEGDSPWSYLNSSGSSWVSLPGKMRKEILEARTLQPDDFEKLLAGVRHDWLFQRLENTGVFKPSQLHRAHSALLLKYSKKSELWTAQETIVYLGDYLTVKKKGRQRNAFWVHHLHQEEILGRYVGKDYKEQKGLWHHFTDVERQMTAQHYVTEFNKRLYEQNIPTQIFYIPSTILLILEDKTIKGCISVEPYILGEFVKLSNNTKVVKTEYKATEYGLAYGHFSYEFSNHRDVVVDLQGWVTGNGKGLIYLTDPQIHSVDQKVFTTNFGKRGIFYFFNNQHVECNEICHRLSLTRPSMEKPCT

Regarding `CC(C)(c1ccc(Br)cc1)c1csc(NC(=O)NCc2ccc(N3CCNCC3)nc2)n1` [Example A092, 1-(4-(2-(4-bromophenyl)propan-2-yl)thiazol-2-yl)-3-((6-(piperazin-1-yl)pyridin-3-yl)methyl)urea], the IC50 on ALPK1 is 20 nM; in test [1], 570 nM.
On the same counts, the results for `COc1ccc(C(C)(C)c2csc(NC(=O)NCc3cnc(N4CCC(O)C4)nc3)n2)cc1` (stereo not drawn) [Example A083, 1-((2-(3-hydroxypyrrolidin-1-yl)pyrimidin-5-yl)methyl)-3-(4-(2-(4-methoxyphenyl)propan-2-yl)thiazol-2-yl)urea] are 111 nM and 680 nM.
With `C#CC(C)(c1ccc(Br)cc1)c1csc(NC(=O)N2CC(O)C2)n1` (stereo not drawn) [Example A153, N-(4-(2-(4-bromophenyl)but-3-yn-2-yl)thiazol-2-yl)-3-hydroxyazetidine-1-carboxamide], the half-inhibitory concentration (IC50) at ALPK1 amounted to 76 nM; in test [1] it was 370 nM.
For `COc1ccc(C(C)(C)c2csc(NC(=O)NCCS(C)(=O)=O)n2)cc1` [Example A013, 1-(4-(2-(4-methoxyphenyl)propan-2-yl)thiazol-2-yl)-3-(2-(methylsulfonyl)ethyl)urea] the same measures were 316 nM and 2970 nM.
For `CC(C)(c1ccc(Br)cc1)c1csc(NC(=O)NCc2ccc(N3CCC(N)C3)cc2)n1` (stereo not drawn) [Example A032, 1-(4-(3-aminopyrrolidin-1-yl)benzyl)-3-(4-(2-(4-bromophenyl)propan-2-yl)thiazol-2-yl)urea] the same measures were 291 nM and 580 nM.
As to `O=C(NCc1cc(F)c(N2CCNCC2)c(F)c1)Nc1nc(C2(c3ccc(Br)cc3)CCCC2)cs1` [Example A192, 1-(4-(1-(4-bromophenyl)cyclopent-yl)thiazol-2-yl)-3-(3,5-difluoro-4-(piperazin-1-yl)benzyl)urea], the IC50 at ALPK1 was 106 nM; in test [1] it was 4340 nM.
For `COc1ccc(C(C)(C)c2csc(NC(=O)NCc3cnc(N4CCN(CCO)CC4)nc3)n2)cc1` [Example A208, 1-((2-(4-(2-hydroxyethyl)piperazin-1-yl)pyrimidin-5-yl)methyl)-3-(4-(2-(4-methoxyphenyl)propan-2-yl)thiazol-2-yl)urea] the same measures were 78 nM and 760 nM.
For `COc1ccc(C(C)(C)c2csc(NC(=O)NCc3cnc(NCCO)c(F)c3)n2)cc1` [Example A105, 1-((5-fluoro-6-((2-hydroxyethyl)amino)pyri-din-3-yl)methyl)-3-(4-(2-(4-methoxyphenyl)propan-2-yl)thiazol-2-yl)urea] the same measures were 144 nM and 1020 nM.
For `COc1ccc(C(C)(C)c2csc(NC(=O)NCc3ccc(NCCO)nc3)n2)cc1` [Example A014, 1-((6-((2-hydroxyethyl)amino)pyri-din-3-yl)methyl)-3-(4-(2-(4-methoxyphenyl)propan-2-yl)thiazol-2-yl)urea] the same measures were 160 nM and 880 nM.
As to `C#C[C@](C)(c1ccc(F)cc1)c1csc(NC(=O)NCCO)n1` (stereo in doubt) [Example A282, 1-(4-(2-(4-fluorophenyl)but-3-yn-2-yl)thiazol-2-yl)-3-(2-hydroxyethyl)urea], the IC50 worked out at 2150 nM at ALPK1 and 7720 nM in test [1].
With `CC(c1ccc(Br)cc1)c1csc(NC(=O)NCc2ccc(N3CCNCC3)cc2)n1` (stereo not drawn) [Example A044, 1-(4-(1-(4-bromophenyl)ethyl)thiazol-2-yl)-3-(4-(piperazin-1-yl)benzyl)urea], the IC50 on ALPK1 is 147 nM; in test [1] it was 1110 nM.
For `CC(C)(c1ccc(Br)cc1)c1csc(NC(=O)NCc2cnc(NCCO)nc2)n1` [Example A119, 1-(4-(2-(4-bromophenyl)propan-2-yl)thiazol-2-yl)-3-((2-((2-hydroxyethyl)amino)pyri-midin-5-yl)methyl)urea] the same measures were 36 nM and 4430 nM.
For `COc1ccc(C(C)(C)c2csc(NC(=O)NCc3ccc(N4CCNCC4)c(C(N)=O)c3)n2)cc1` [Example A060, 5-((3-(4-(2-(4-methoxyphenyl)propan-2-yl)thiazol-2-yl)ureido)methyl)-2-(piperazin-1-yl)benzamide] the same measures were 8 nM and 4800 nM.
For `COCCOc1cc(CNC(=O)Nc2nc(C(C)(C)c3ccc(Br)cc3)cs2)ccc1N1CCNCC1` [Example A055, 1-(4-(2-(4-bromophenyl)propan-2-yl)thiazol-2-yl)-3-(3-(2-methoxyethoxy)-4-(piperazin-1-yl)benzyl)urea] the same measures were 182 nM and 4700 nM.
`COc1ccc(C(C)(C)c2csc(NC(=O)NC3(c4ccc(N5CCNCC5)cc4)CC3)n2)cc1` [Example A240, 1-(4-(2-(4-methoxyphenyl)propan-2-yl)thiazol-2-yl)-3-(1-(4-(piperazin-1-yl)phenyl)cyclopropyl)u-rea]: the IC50 worked out at 97 nM against ALPK1 and 1880 nM in test [1].
For `CCC(C)(c1ccc(Br)cc1)c1csc(NC(=O)NCc2ccc(N3CCNCC3)cc2)n1` (stereo not drawn) [Example A039, 1-(4-(2-(4-bromophenyl)butan-2-yl)thiazol-2-yl)-3-(4-(piperazin-1-yl)benzyl)urea] the same measures were 189 nM and 711 nM.
With `CC(C)(c1ccc(Br)cc1)c1csc(NC(=O)NCc2ccc(OCCN)cc2)n1` [Example A212, 1-(4-(2-aminoethoxy)benzyl)-3-(4-(2-(4-bromophenyl)propan-2-yl)thiazol-2-yl)urea], the results for the IC50 (against ALPK1; in test [1]) were 289 nM and 2750 nM, respectively.
On the same counts, the results for `COc1ccc(C(C)(C)c2csc(NC(=O)NCc3ccc(N(C)CCO)nc3)n2)cc1` [Example A023, 1-((6-((2-hydroxyethyl)(methyl)a-mino)pyridin-3-yl)methyl)-3-(4-(2-(4-methoxyphenyl)propan-2-yl)thiazol-2-yl)urea] are 229 nM and 1320 nM.
With `COc1ccc(C(C)(C)c2csc(NC(=O)N3CC(c4ccc(N5CCNCC5)cc4)C3)n2)cc1` [Example A233, N-(4-(2-(4-methoxyphenyl)propan-2-yl)thiazol-2-yl)-3-(4-(piperazin-1-yl)phenyl)azetidine-1-carboxamide], the concentration for half-maximal inhibition (IC50) at ALPK1 is 43 nM; in test [1], 330 nM.
On the same counts, the results for `[2H]c1sc(NC(=O)NCCO)nc1[C@@](C)(C#C)c1ccc(Cl)cc1` [Example A299, 1-(4-(2-(4-chlorophenyl)but-3-yn-2-yl)thiazol-2-yl)-3-(2-hydroxyethyl)urea] are 58 nM and 460 nM.
On the same counts, the results for `CC(C)(c1ccc(Br)cc1)c1csc(NC(=O)NCc2ccnc(N3CCNCC3)c2F)n1` [Example A207, 1-(4-(2-(4-bromophenyl)propan-2-yl)thiazol-2-yl)-3-((3-fluoro-2-(piperazin-1-yl)pyridin-4-yl)methyl)urea] are 99 nM and 2180 nM.
For `C#C[C@](C)(c1ccc(Cl)cc1)c1csc(NC(=O)NC[C@H](O)CO)n1` [Example A302, 1-(4-(2-(4-chlorophenyl)but-3-yn-2-yl)thiazol-2-yl)-3-((S)-2,3-dihydroxypropyl)urea] the same measures were 417 nM and 2040 nM.
As for `COc1ccc(C(C)(C)c2csc(NC(=O)NC(C)c3cc(F)c(N4CCNCC4)cc3F)n2)cc1` (stereo not drawn) [Example A002, 1-(1-(2,5-difluoro-4-(piperazin-1-yl)phenyl)ethyl)-3-(4-(2-(4-methoxyphenyl)propan-2-yl)thiazol-2-yl)urea], the IC50 came out at 63 nM at ALPK1 and 700 nM in test [1].
For `COc1ccc(C(C)(C)c2csc(NC(=O)NCc3ccc(CN4CCNCC4)c(F)c3)n2)cc1` [Example A037, 1-(3-fluoro-4-(piperazin-1-ylmethyl)benzyl)-3-(4-(2-(4-methoxyphenyl)propan-2-yl)thiazol-2-yl)urea] the same measures were 57 nM and 2510 nM.
For `C#C[C@](C)(c1ccc(OC)cc1)c1csc(NC(N)=O)n1` [Example A172, (R)-1-(4-(2-(4-methoxyphenyl)but-3-yn-2-yl)thiazol-2-yl)urea] the same measures were 36 nM and 1280 nM.
For `C#C[C@@](C)(c1ccc(F)cc1)c1csc(NC(=O)NCCO)n1` [Example A283, 1-(4-(2-(4-fluorophenyl)but-3-yn-2-yl)thiazol-2-yl)-3-(2-hydroxyethyl)urea] the same measures were 550 nM and 1700 nM.
As to `[2H]C([2H])(O)CNC(=O)Nc1nc([C@@](C)(C#C)c2ccc(Cl)cc2)cs1` (stereo in doubt) [Example A321, 1-[4-[1-(4-chlorophenyl)-1-methyl-prop-2-ynyl]thiazol-2-yl]-3-(2,2-dideuterio-2-hydroxy-ethyl)urea], the half-inhibitory concentration (IC50) against ALPK1 amounted to 28 nM; in test [1], 300 nM.
`CC(C)(c1ccc(Cl)cc1)c1csc(NC(=O)NCc2cnc(N3CCNCC3)nc2)n1` [Example A084, 1-(4-(2-(4-chlorophenyl)propan-2-yl)thiazol-2-yl)-3-((2-(piperazin-1-yl)pyrimidin-5-yl)methyl)urea]: the figures for the concentration for half-maximal inhibition (IC50) (against ALPK1; in test [1]) were 22 nM and 340 nM, respectively.
For `C#C[C@](C)(c1ccc(Cl)cc1)c1csc(NC(=O)NC2(CO)CC2)n1` [Example A296] the same measures were 114 nM and 4790 nM.
Turning to `CC(C)(c1ccc(Br)cc1)c1csc(NC(=O)NCc2ccc(N3CCNCC3)cc2)n1` [Example A027, 1-(4-(2-(4-bromophenyl)propan--2 yl)thiazol-2-yl)-3-(4-(piperazin-1-yl)benzyl)urea], the IC50 against ALPK1 is 46 nM; against ALPK1 (ALPK1 2 nM, TIFA substrate, ADP-Heptose activator, HTRF readout) it was roughly 50 nM; in test [1], 1450 nM.
As to `CC(C)(c1ccc(Br)cc1)c1csc(NC(=O)NCc2ccc(N3CCNCC3)c(F)c2)n1` [Example A050, 1-(4-(2-(4-bromophenyl)propan-2-yl)thiazol-2-yl)-3-(3-fluoro-4-(piperazin-1-yl)benzyl)urea], the IC50 was determined as 26 nM against ALPK1 and 1210 nM in test [1].

Source of the values: patent publication US20240109853A1 (Shanghai Yao Yuan Biotechnology Co., Ltd., priority 2020, published 2024).
